# “Also recorded” adds a separate entry of the source.
# Key:
# [1] = cited from earlier work
# [2] = Continuous EKG monitoring, corrected QT interval; type: in vivo, human; details: days 1 and 15 of cycle 1
# [3] = Plasma pharmacokinetics of PF-04928473 after oral PF-04929113; type: in vivo, human; details: patients
# [4] = cited from earlier work; remark: listed apart in the source
# [5] = system: Hsp70 levels in peripheral blood mononuclear cells (PBMCs); assay: Hsp70 induction in peripheral blood by western blot; type: in vivo, human
# [6] = no reference given, cited from earlier work
# [7] = cited from earlier work; remark: listed apart in the source
# [8] = human, in vivo
# [9] = Comprehensive ophthalmologic evaluation of patients on study; type: in vivo, human
# [10] = Phase I dose-escalation study: adverse events, DLT and tolerability in patients; details: drug-related; 33 patients
# [11] = system: advanced solid tumors and lymphomas; assay: Assessment of response; type: in vivo, human
# [12] = 18 days after initiation of cycle 3
smiles,measurement,setting,value
CC1(C)CC(=O)c2c(C(F)(F)F)nn(-c3ccc(C(N)=O)c(N[C@H]4CC[C@H](OC(=O)CN)CC4)c3)c2C1 [PF-04929113],Retinal damage in animal studies,"[1]; canine model, reports, no reference given",irreversible retinal damage
same,Retinal toxicity,"[1]; dog, in vivo",evidence of retinal toxicity
same,Effect on the corrected QT interval,[2],did not reveal any effect
same,Absorption following oral administration,[3],rapidly absorbed
same,Oral bioavailability,[4],orally bioavailable
same,Dose at or above which an increase in Hsp70 levels was seen in all patients,[5]; PBMCs,≥ 33 mg/m^2/day
same,Patients with increased Hsp70 protein level at day 15 and/or day 16,"[5]; PBMCs, compared to baseline",16 out of 19
same,Relation of Hsp70 induction to PK parameters (Cmax and AUCinf of each cohort),[5]; fold increase at 24h versus baseline,linear correlation
same,Inhibition of Hsp90 in patients (PD studies),[5]; in vivo,confirmed inhibition of Hsp90
same,lowest biologically effective dose,"[5]; orally twice weekly, based on PD data",33 mg/m^2
same,Level of Hsp70 induction as a function of dose,[5]; ≤ 44 vs > 44 mg/m^2/dose,greater at higher dose levels
same,Patients with visual symptoms (nictalopia and blurred vision),"[6]; another phase I study, daily administration",4 out of 20 and Four out of 20
same,Patients who complained of blurred vision,"[6]; daily administration, grade 1",one
same,Patients who complained of nictalopia,"[6]; daily administration, grade 1",Three
same,Onset of visual event after beginning the drug,"[6]; in most cases, daily administration",≤ 2 weeks
same,DLTs with daily administration,[6],"3 cases of grade 3 diarrhea, 1 case of grade 2 dehydration and grade 3 gastrointestinal hemorrhage and 1 case of grade 3 visual disturbance and grade 3 diarrhea"
same,Water solubility,[7],water soluble
same,"ALT elevation, Grade 1",[8],5 (15) Number of patients (%)
same,"ALT elevation, Grade 2",[8],1 (3) Number of patients (%)
same,"ALT elevation, Grade 3",[8],0 Number of patients (%)
same,"ALT elevation, Grade 4",[8],0 Number of patients (%)
same,"AST elevation, Grade 1",[8],3 (9) Number of patients (%)
same,"AST elevation, Grade 2",[8],2 (6) Number of patients (%)
same,"AST elevation, Grade 3",[8],1 (3) Number of patients (%)
same,"AST elevation, Grade 4",[8],0 Number of patients (%)
same,"Abdominal pain, Grade 1",[8],1 (3) Number of patients (%)
same,"Abdominal pain, Grade 2",[8],0 Number of patients (%)
same,"Abdominal pain, Grade 3",[8],0 Number of patients (%)
same,"Abdominal pain, Grade 4",[8],0 Number of patients (%)
same,"Alkaline phosphatase elevation, Grade 1",[8],0 Number of patients (%)
same,"Alkaline phosphatase elevation, Grade 2",[8],2 (6) Number of patients (%)
same,"Alkaline phosphatase elevation, Grade 3",[8],0 Number of patients (%)
same,"Alkaline phosphatase elevation, Grade 4",[8],0 Number of patients (%)
same,"Anemia, Grade 1",[8],2 (6) Number of patients (%)
same,"Anemia, Grade 2",[8],3 (9) Number of patients (%)
same,"Anemia, Grade 3",[8],0 Number of patients (%)
same,"Anemia, Grade 4",[8],0 Number of patients (%)
same,"Anorexia, Grade 1",[8],2 (6) Number of patients (%)
same,"Anorexia, Grade 2",[8],1 (3) Number of patients (%)
same,"Anorexia, Grade 3",[8],0 Number of patients (%)
same,"Anorexia, Grade 4",[8],0 Number of patients (%)
same,"Arthritis (non-septic), Grade 1",[8],0 Number of patients (%)
same,"Arthritis (non-septic), Grade 2",[8],1 (3) Number of patients (%)
same,"Arthritis (non-septic), Grade 4",[8],0 Number of patients (%)
same,"Constipation, Grade 1",[8],1 (3) Number of patients (%)
same,"Constipation, Grade 2",[8],0 Number of patients (%)
same,"Constipation, Grade 3",[8],0 Number of patients (%)
same,"Constipation, Grade 4",[8],0 Number of patients (%)
same,"Cough, Grade 1",[8],1 (3) Number of patients (%)
same,"Cough, Grade 2",[8],0 Number of patients (%)
same,"Cough, Grade 3",[8],0 Number of patients (%)
same,"Cough, Grade 4",[8],0 Number of patients (%)
same,"Creatinine phosphokinase elevation, Grade 1",[8],1 (3) Number of patients (%)
same,"Creatinine phosphokinase elevation, Grade 2",[8],0 Number of patients (%)
same,"Creatinine phosphokinase elevation, Grade 3",[8],0 Number of patients (%)
same,"Creatinine phosphokinase elevation, Grade 4",[8],0 Number of patients (%)
same,"Diarrhea, Grade 1",[8],4 (12) Number of patients (%)
same,"Diarrhea, Grade 2",[8],0 Number of patients (%)
same,"Diarrhea, Grade 3",[8],3 (9) Number of patients (%)
same,"Diarrhea, Grade 4",[8],0 Number of patients (%)
same,Dose Level at which grade 3 AST elevation occurred,[8],77 mg/m^2
same,Dose Level at which grade 3 Non-septic arthritis occurred,[8],16 mg/m^2
same,Dose Level at which grade 3 Thrombocytopenia occurred,[8],177 mg/m^2
same,"Dysgeusia, Grade 1",[8],1 (3) Number of patients (%)
same,"Dysgeusia, Grade 2",[8],1 (3) Number of patients (%)
same,"Dysgeusia, Grade 3",[8],0 Number of patients (%)
same,"Dysgeusia, Grade 4",[8],0 Number of patients (%)
same,"Dyspepsia, Grade 1",[8],1 (3) Number of patients (%)
same,"Dyspepsia, Grade 2",[8],0 Number of patients (%)
same,"Dyspepsia, Grade 3",[8],0 Number of patients (%)
same,"Dyspepsia, Grade 4",[8],0 Number of patients (%)
same,"Edema, Grade 1",[8],0 Number of patients (%)
same,"Edema, Grade 2",[8],1 (3) Number of patients (%)
same,"Edema, Grade 3",[8],0 Number of patients (%)
same,"Edema, Grade 4",[8],0 Number of patients (%)
same,"Emesis, Grade 1",[8],2 (6) Number of patients (%)
same,"Emesis, Grade 2",[8],1 (3) Number of patients (%)
same,"Emesis, Grade 3",[8],0 Number of patients (%)
same,"Emesis, Grade 4",[8],0 Number of patients (%)
same,"Fatigue, Grade 1",[8],4 (12) Number of patients (%)
same,"Fatigue, Grade 2",[8],2 (6) Number of patients (%)
same,"Fatigue, Grade 3",[8],0 Number of patients (%)
same,"Fatigue, Grade 4",[8],0 Number of patients (%)
same,"Flu-like symptoms, Grade 1",[8],1 (3) Number of patients (%)
same,"Flu-like symptoms, Grade 2",[8],0 Number of patients (%)
same,"Flu-like symptoms, Grade 3",[8],0 Number of patients (%)
same,"Flu-like symptoms, Grade 4",[8],0 Number of patients (%)
same,"Hyponatremia, Grade 1",[8],1 (3) Number of patients (%)
same,"Hyponatremia, Grade 2",[8],0 Number of patients (%)
same,"Hyponatremia, Grade 3",[8],0 Number of patients (%)
same,"Hyponatremia, Grade 4",[8],0 Number of patients (%)
same,"Hypophosphatemia, Grade 1",[8],0 Number of patients (%)
same,"Hypophosphatemia, Grade 2",[8],1 (3) Number of patients (%)
same,"Hypophosphatemia, Grade 3",[8],0 Number of patients (%)
same,"Hypophosphatemia, Grade 4",[8],0 Number of patients (%)
same,"Joint pain, Grade 1",[8],1 (3) Number of patients (%)
same,"Joint pain, Grade 2",[8],1 (3) Number of patients (%)
same,"Joint pain, Grade 3",[8],0 Number of patients (%)
same,"Joint pain, Grade 4",[8],0 Number of patients (%)
same,"Leukopenia, Grade 1",[8],2 (6) Number of patients (%)
same,"Leukopenia, Grade 2",[8],0 Number of patients (%)
same,"Leukopenia, Grade 3",[8],0 Number of patients (%)
same,"Leukopenia, Grade 4",[8],0 Number of patients (%)
same,"Lymphopenia, Grade 1",[8],2 (6) Number of patients (%)
same,"Lymphopenia, Grade 2",[8],6 (18) Number of patients (%)
same,"Lymphopenia, Grade 3",[8],0 Number of patients (%)
same,"Lymphopenia, Grade 4",[8],0 Number of patients (%)
same,"Muscle pain, Grade 1",[8],0 Number of patients (%)
same,"Muscle pain, Grade 2",[8],1 (3) Number of patients (%)
same,"Muscle pain, Grade 3",[8],0 Number of patients (%)
same,"Muscle pain, Grade 4",[8],0 Number of patients (%)
same,"Nausea, Grade 1",[8],8 (24) Number of patients (%)
same,"Nausea, Grade 2",[8],1 (3) Number of patients (%)
same,"Nausea, Grade 3",[8],0 Number of patients (%)
same,"Nausea, Grade 4",[8],0 Number of patients (%)
same,"Neutropenia, Grade 1",[8],1 (3) Number of patients (%)
same,"Neutropenia, Grade 2",[8],0 Number of patients (%)
same,"Neutropenia, Grade 3",[8],0 Number of patients (%)
same,"Neutropenia, Grade 4",[8],0 Number of patients (%)
same,"Thrombocytopenia, Grade 1",[8],4 (12) Number of patients (%)
same,"Thrombocytopenia, Grade 2",[8],0 Number of patients (%)
same,"Thrombocytopenia, Grade 3",[8],1 (3) Number of patients (%)
same,"Thrombocytopenia, Grade 4",[8],0 Number of patients (%)
same,"Weight loss, Grade 1",[8],1 (3) Number of patients (%)
same,"Weight loss, Grade 2",[8],0 Number of patients (%)
same,"Weight loss, Grade 3",[8],0 Number of patients (%)
same,"Weight loss, Grade 4",[8],0 Number of patients (%)
same,grade 3 AEs: AST elevation,[8],3%
same,grade 3 AEs: diarrhea,[8],9%
same,grade 3 AEs: non-septic arthritis,[8],3%
same,grade 3 AEs: thrombocytopenia,[8],3%
same,"Arthritis (non-septic), Grade 3",[8]; [12],1 (3) Number of patients (%)
same,Dose at which the DLT (non-septic arthritis) was noted,[8]; [12],16 mg/m^2/dose
same,Drug-related ocular toxicity in this study,[9]; oral twice weekly,no clinically significant drug-related ocular toxicity was seen in this study
same,Ocular examination findings in single patients,"[9]; three patients at 77, 133 and 177 mg/m^2, after 8, 10 and 28 cycles",slightly prolonged cone-rod break in the right eye but the ERG was normal; also recorded: normal eye exam; also recorded: slightly prolonged cone-rod break in one patient
same,Grade 4 adverse events or deaths,[10],No grade 4 adverse events (AEs) were seen; also recorded: No drug-related grade 4 adverse events or deaths were seen
same,Median duration of disease stabilization,[11]; 15 patients,16 weeks
same,Objective responses,[11]; 32 evaluable patients,no objective tumor responses
same,Anti-tumor activity as a single-agent,[11]; twice weekly continuous dosing,modest anti-tumor activity

# — publication PMC3207004 (Clinical cancer research : an official journal of the …, 2011)
